Measurements published in US5149834A, “4-Hydroxytetrahydropyran-2-one derivatives” (Fujirebio Inc., priority 1990, dated 1992).

Key:
HMG Co-A Reductase = target: T1, HMG Co-A Reductase (Rattus norvegicus, UniProt P51639); assay: Measurement of inhibiting effect on HMG Co-A reductase (inhibiting ratio of biosynthesis of cholesterol); assay type: biochemical; settings: 0.1 μM samples, compactin = 100
T1 construct: from tissue
T1 sequence (P51639 1-887): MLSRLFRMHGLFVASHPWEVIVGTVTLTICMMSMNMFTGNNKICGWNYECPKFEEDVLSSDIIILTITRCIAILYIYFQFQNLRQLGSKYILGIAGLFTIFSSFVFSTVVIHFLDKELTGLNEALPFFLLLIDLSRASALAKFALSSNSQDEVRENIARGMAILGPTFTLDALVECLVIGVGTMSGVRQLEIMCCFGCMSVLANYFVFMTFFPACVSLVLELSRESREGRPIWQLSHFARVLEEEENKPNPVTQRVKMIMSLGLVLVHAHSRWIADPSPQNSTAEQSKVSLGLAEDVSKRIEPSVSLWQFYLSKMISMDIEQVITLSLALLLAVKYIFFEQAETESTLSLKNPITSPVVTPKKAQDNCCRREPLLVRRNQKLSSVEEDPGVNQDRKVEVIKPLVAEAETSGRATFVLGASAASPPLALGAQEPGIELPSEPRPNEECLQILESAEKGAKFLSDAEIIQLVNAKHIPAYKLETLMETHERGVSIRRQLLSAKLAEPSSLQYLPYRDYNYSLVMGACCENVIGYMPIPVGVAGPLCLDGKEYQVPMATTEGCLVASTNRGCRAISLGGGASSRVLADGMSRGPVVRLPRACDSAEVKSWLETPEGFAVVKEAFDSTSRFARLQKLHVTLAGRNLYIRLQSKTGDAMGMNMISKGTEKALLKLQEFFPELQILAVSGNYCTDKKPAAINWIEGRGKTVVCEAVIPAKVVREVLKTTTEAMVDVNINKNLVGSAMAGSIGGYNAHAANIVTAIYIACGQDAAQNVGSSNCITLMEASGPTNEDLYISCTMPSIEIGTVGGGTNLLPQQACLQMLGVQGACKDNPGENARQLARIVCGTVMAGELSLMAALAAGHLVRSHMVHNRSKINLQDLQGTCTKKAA
Procedure: The inhibiting effect on HMG Co-A Reductase of representative examples of the 4-hydroxytetrahydropyran-2-one derivatives prepared in the above-discussed examples was measured in accordance with the method described in Journal of Biological Chemistry (J. Biol. Chem.) Vol. 234, page 2835 (1959) in order to investigate the inhibiting activity of each derivative in terms of the inhibiting ratio of the biosynthesis of cholesterol.

rat brain homogenate = assay: Anti-oxidation function: inhibition of automatic ABARTS reproduction of rat brain homogenate; assay type: biochemical; settings: vitamin E as reference = 100
Procedure: The anti-oxidation function of some examples of the 4-hydroxytetrahydropyran-2-one derivatives prepared in the above-discussedexamples was measured as a reference of the inhibition function of the automatic ABARTS reproduction of the rat brain homogenate in accordance with the method described in Nippon Yakuri-shi 87, 427-434 (1986) by K. Shintomi et al.

Inhibiting Activity (Inhibiting Ratio of Biosynthesis of Cholesterol), relative value when the value of compactin is 100 (HMG Co-A Reductase)	Molecule	Anti-oxidation Function (rat brain homogenate)
11	Cc1c(O)c(C)c2c(c1CC[C@H]1C[C@H](O)CC(=O)O1)OC(C)(C)C2 (racemic) [Compound No. 14, trans-(±)-6-(2,3-dihydro-5-hydroxy-2,2,4,6-tetramethylbenzo[b]furan-7-yl)ethyl-4-hydroxytetrahydropyran-2-one]	106
50	Cc1c(CC[C@@H]2C[C@@H](O)CC(=O)O2)c2c(c(C)c1OCc1ccccc1)CC(C)(C)O2 (relative stereo) [Compound No. 13, trans-(±)-6-(5-benzyloxy-2,3-dihydro-2,2,4,6-tetramethylbenzo[b]furan-7-ethyl-4-hydroxytetrahydropyran-2-one]	
90	Cc1c(CC[C@@H]2C[C@@H](O)CC(=O)O2)c2c(c(C)c1OC(=O)c1cccnc1)CC(C)(C)O2 (relative stereo) [Compound No. 31, trans-(±)-6-[2,3-dihydro-5-(pyridine-3-carboxy)-2,2,4,6-tetramethylbenzo[b]furan-7-yl]ethyl-4-hydroxytetrahydropyran-2-one]	
28	Cc1c(O)c(C)c2c(c1CC[C@@H]1C[C@@H](O)CC(=O)O1)OC(C)(C)CC2 (relative stereo) [Compound No. 46, trans-(±)-6-[(6-hydroxy-2,2,5,7-tetramethyl)chroman-8-yl]ethyl-4-hydroxytetrahydropyran-2-one]	106
180	Cc1c2c(c(CC[C@@H]3C[C@@H](O)CC(=O)O3)c(C(C)C)c1OC(=O)c1cccnc1)OC(C)(C)C2 (relative stereo) [Compound No. 156, trans-(±)-6-[2,3-dihydro-6-(2-propyl)-5-(pyridine-3-carboxy)-2,2,4-trimethylbenzo[b]furan-7-yl]ethyl-4-hydroxytetrahydropyran-2-one]	

Further lines, the molecule ahead of its results:

Molecule	Inhibiting Activity (Inhibiting Ratio of Biosynthesis of Cholesterol), relative value when the value of compactin is 100 (HMG Co-A Reductase)	Anti-oxidation Function (rat brain homogenate)
CC(=O)Oc1c(C)c(CC[C@H]2C[C@H](O)CC(=O)O2)c2c(c1C)CC(C)(C)O2 (racemic) [Compound No. 33, trans-(±)-6-(5-acetoxy-2,3-dihydro-2,2,4,6-tetramethylbenzo[b]furan-7-yl)ethyl-4-hydroxytetrahydropyran-2-one]	21	
Cc1c2c(c(CC[C@H]3C[C@H](O)CC(=O)O3)c(C(C)C)c1OCc1ccccc1)OC(C)(C)C2 (racemic) [Compound No. 81, trans-(±)-6-[5-benzyloxy-2,3-dihydro-6-(2-propyl)-2,2,4-trimethylbenzo[b]furan-7-yl]ethyl-4-hydroxytetrahydropyran-2-one]	427	
Cc1c2c(c(CC[C@H]3C[C@H](O)CC(=O)O3)c(C(C)(C)C)c1OCc1ccccc1)OC(C)(C)C2 (racemic) [Compound No. 112, trans-(±)-6-[5-benzyloxy-6-(t-butyl)-2,3-dihydro-2,2,4-trimethylbenzo[b]furan-7-yl]ethyl-4-hydroxytetrahydropyran-2-one]	190	
CC1(C)Cc2cc(OCc3ccccc3)c(C(C)(C)C)c(CC[C@H]3C[C@H](O)CC(=O)O3)c2O1 (racemic) [Compound No. 124, trans-(±)-6-[5-benzyloxy-6-(t-butyl)-2,3-dihydro-2,2-dimethylbenzo[b]furan-7-yl]ethyl-4-hydroxytetrahydropyran-2-one]	300	
CC(C)c1c(OCc2ccccc2)cc2c(c1CC[C@H]1C[C@H](O)CC(=O)O1)OC(C)(C)C2 (racemic) [Compound No. 154, trans-(±)-6-[5-benzyloxy-2,3-dihydro-2,2-dimethyl-6-(2-propyl)benzo[b]furan-7-yl]ethyl-4-hydroxytetrahydropyran-2-one]	250	
Cc1c(CC[C@@H]2C[C@@H](O)CC(=O)O2)c2c(c(C)c1OCc1ccccc1)CCC(C)(C)O2 (relative stereo) [Compound No. 45]	39	
CC(=O)Oc1c(C)c(CC[C@@H]2C[C@@H](O)CC(=O)O2)c2c(c1C)CCC(C)(C)O2 (relative stereo) [Compound No. 50, trans-(±)-6-[(6-acetoxy-2,2,5,7-tetramethyl)chroman-8-yl]ethyl-4-hydroxytetrahydropyran-2-one]	12	106
Cc1c(CC[C@@H]2C[C@@H](O)CC(=O)O2)c2c(c(C)c1OC(=O)c1cccnc1)CCC(C)(C)O2 (relative stereo) [Compound No. 52, trans-(±)-6-[[6-pyridine-3-carboxy)-2,2,5,7-tetramethyl]-chroman-8-yl]ethyl-4-hydroxytetrahydropyran-2-one]	18	19
Vitamin E [reference compound]		100
